Structures can show the parent of a compound that is named as a salt.
Legend:
Test in all cases: Enzyme Inhibition Assay
Aminopeptidase N = target: T1, Aminopeptidase N (Sus scrofa, UniProt P15145)
T1 sequence (P15145 whole entry): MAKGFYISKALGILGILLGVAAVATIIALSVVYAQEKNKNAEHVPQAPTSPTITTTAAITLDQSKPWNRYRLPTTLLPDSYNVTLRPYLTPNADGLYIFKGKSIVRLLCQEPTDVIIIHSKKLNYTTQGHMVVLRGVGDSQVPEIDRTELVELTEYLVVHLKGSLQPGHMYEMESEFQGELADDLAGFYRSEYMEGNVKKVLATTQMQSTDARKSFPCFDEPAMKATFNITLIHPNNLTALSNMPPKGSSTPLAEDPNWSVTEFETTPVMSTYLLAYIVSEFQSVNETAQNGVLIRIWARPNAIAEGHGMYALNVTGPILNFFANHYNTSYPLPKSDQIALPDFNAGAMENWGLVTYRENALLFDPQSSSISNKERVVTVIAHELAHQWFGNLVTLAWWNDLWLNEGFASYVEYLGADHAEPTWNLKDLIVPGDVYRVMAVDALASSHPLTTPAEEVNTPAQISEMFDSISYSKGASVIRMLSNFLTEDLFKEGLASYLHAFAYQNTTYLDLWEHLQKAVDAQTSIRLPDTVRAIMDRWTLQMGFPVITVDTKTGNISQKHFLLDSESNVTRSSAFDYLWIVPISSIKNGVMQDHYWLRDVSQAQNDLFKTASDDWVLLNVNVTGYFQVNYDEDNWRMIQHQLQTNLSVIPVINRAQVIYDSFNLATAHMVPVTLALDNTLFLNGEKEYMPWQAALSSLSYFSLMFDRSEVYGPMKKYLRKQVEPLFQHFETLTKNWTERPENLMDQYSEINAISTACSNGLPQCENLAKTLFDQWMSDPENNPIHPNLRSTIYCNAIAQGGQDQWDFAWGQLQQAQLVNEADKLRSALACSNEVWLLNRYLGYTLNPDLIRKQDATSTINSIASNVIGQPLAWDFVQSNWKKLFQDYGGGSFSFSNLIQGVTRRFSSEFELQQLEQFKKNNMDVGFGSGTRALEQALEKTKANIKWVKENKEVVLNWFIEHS

[1] = target: Bacterial leucyl aminopeptidase (Vibrio proteolyticus, UniProt Q01693)
Chain of Bacterial leucyl aminopeptidase (Q01693 whole entry): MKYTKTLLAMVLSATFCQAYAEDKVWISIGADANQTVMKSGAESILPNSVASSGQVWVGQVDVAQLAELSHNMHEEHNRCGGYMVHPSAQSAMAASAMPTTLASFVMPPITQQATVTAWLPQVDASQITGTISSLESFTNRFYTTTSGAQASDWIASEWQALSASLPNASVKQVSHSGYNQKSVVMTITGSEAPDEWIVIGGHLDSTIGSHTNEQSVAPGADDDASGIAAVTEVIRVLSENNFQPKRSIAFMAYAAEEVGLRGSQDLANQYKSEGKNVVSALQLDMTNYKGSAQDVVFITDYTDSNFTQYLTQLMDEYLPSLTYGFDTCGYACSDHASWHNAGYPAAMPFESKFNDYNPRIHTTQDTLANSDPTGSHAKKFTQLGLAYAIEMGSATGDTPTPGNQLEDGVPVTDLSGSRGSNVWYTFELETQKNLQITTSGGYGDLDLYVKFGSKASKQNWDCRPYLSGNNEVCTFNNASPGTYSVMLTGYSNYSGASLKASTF

[2] = target: T2, Leukotriene A-4 hydrolase (Homo sapiens, UniProt P09960)
T2 sequence (P09960 whole entry): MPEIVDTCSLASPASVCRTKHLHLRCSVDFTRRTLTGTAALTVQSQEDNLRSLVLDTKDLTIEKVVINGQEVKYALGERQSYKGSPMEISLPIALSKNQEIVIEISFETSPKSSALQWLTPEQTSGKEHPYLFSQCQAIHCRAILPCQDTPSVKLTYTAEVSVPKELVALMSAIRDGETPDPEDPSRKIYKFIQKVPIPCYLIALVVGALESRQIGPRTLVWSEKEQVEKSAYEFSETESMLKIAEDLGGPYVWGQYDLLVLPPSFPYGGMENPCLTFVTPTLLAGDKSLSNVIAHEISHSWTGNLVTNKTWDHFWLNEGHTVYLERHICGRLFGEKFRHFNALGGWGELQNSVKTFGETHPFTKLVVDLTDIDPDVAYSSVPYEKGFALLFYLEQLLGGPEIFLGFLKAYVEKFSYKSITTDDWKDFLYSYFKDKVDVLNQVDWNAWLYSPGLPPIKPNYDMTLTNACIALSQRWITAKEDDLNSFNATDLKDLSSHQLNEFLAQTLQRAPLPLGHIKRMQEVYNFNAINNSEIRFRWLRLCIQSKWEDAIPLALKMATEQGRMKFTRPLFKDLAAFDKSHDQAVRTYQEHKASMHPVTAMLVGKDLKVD

| Structure (SMILES) | IC50 (Aminopeptidase N) [µM] | IC50 ([1]; pH 8, 30 °C) [µM] | IC50 [2] [µM] | IC50 [1] [µM] | Ki (Aminopeptidase N) [µM] | Ki [2] [µM] | Ki [1] [µM] |
| --- | --- | --- | --- | --- | --- | --- | --- |
| NC1Cc2ccccc2C/C1=N/OCCCCCc1ccccc1 (stereo not given) [(3Z)-3-{[(5-phenylpentyl)oxy]imino}-1,2,3,4-tetrahydronaphthalen-2-amine hydrochloride] |  | 130 |  |  | 80 | 30 |  |
| NC1Cc2ccccc2CC1C(=O)NO (stereo not given) [3-amino-N-hydroxy-1,2,3,4-tetrahydronaphthalene-2-carboxamide hydrochloride] |  |  | > 1000 |  | 4 |  | 4 |
| O=C1CCc2ccccc2C1 [1,2,3,4-tetrahydronaphthalen-2-one] | > 1000 |  | > 1000 | > 1000 |  |  |  |
| NC1CCc2ccccc2C1 [(2S)-1,2,3,4-Tetrahydro-naphthalen-2-ylamine] | > 1000 | > 1000 | > 1000 |  |  |  |  |
| O=C1Cc2ccccc2CS1 [3,4-dihydro-1H-2-benzothiopyran-3-one] | > 1000 |  | > 1000 |  |  |  | 4 |
| NC1Cc2ccccc2C/C1=N/OCCCc1ccccc1 (stereo not given) [(3Z)-3-[(3-phenylpropoxy)imino]-1,2,3,4-tetrahydronaphthalen-2-amine hydrochloride] |  | 300 |  |  | 110 | 6 |  |
| NC1Cc2ccccc2C/C1=N/OCCc1ccccc1 (stereo not given) [(3Z)-3-[(2-phenylethoxy)imino]-1,2,3,4-tetrahydronaphthalen-2-amine hydrochloride] |  | 170 | 500 |  | 260 |  |  |
| NC1Cc2ccccc2CC1P(=O)(O)O (stereo not given) [3-amino-1,2,3,4-tetrahydronaphthalene-2-phosphonic acid hydrochloride] | 500 |  | > 1000 | 150 |  |  |  |
| NC1Cc2ccccc2C/C1=N/OCCCCc1ccccc1 (stereo not given) [(3Z)-3-[(4-phenylbutoxy)imino]-1,2,3,4-tetrahydronaphthalen-2-amine hydrochloride] |  | 110 |  |  | 55 | 8 |  |

Next, values leading:

| IC50 (Aminopeptidase N) [µM] | IC50 ([1]; pH 8, 30 °C) [µM] | IC50 [2] [µM] | IC50 [1] [µM] | Ki (Aminopeptidase N) [µM] | Ki [2] [µM] | Ki [1] [µM] | Structure (SMILES) |
| --- | --- | --- | --- | --- | --- | --- | --- |
| > 1000 | 500 | 750 |  |  |  |  | CC(=O)C1Cc2ccccc2CC1N (stereo not given) [1-(3-amino-1,2,3,4-tetrahydronaphthalen-2-yl)ethan-1-one hydrochloride] |
| > 1000 |  | > 1000 | > 1000 |  |  |  | O=C1Cc2ccccc2CO1 [3,4-dihydro-1H-2-benzopyran-3-one] |
| > 1000 |  | > 1000 |  |  |  | 80 | NC1Cc2ccccc2NC1=O (stereo not given) [3-amino-1,2,3,4-tetrahydroquinolin-2-one hydrochloride] |
| > 1000 |  | > 1000 |  |  |  | 4 | O=C1Cc2ccccc2CN1O [2-hydroxy-1,2,3,4-tetrahydroisoquinolin-3-one] |
|  | 130 | > 1000 |  |  |  |  | NC1Cc2ccccc2CC1=O (stereo not given) [3-amino-1,2,3,4-tetrahydronaphthalen-2-one hydrochloride] |
| 790 | 210 | > 1000 |  |  |  |  | NC1Cc2ccccc2C/C1=N/OCc1ccccc1 (stereo not given) [(3Z)-3-[(benzyloxy)imino]-1,2,3,4-tetrahydronaphthalen-2-amine hydrochloride] |
| > 1000 |  | > 1000 | 740 |  |  |  | NN1Cc2ccccc2CC1=O [2-amino-1,2,3,4-tetrahydroisoquinolin-3-one] |
|  | 800 | > 1000 |  | 130 |  |  | CO/N=C1/Cc2ccccc2CC1N (stereo not given) [(3Z)-3-(methoxyimino)-1,2,3,4-tetrahydronaphthalen-2-amine hydrochloride] |

— BindingDB's records for doi:10.1016/j.bmc.2006.06.050 (Enscmu, 2006)
